The solubility is the concentration that dissolves in the medium under given conditions. One may read the IC50 as the concentration that gives 50% inhibition.

Consider 21 molecules from US5670492A, “DC-89 derivatives” (priority 1994, dated 1997).

The conditions of data set [1]: when used as injections; cited from earlier work.
The test system of the next data set is Sarcoma 180 tumor. Description: Therapeutic Effect Against Sarcoma 180 Tumor. It is filed as in vivo, male ddY-strain mice. The conditions noted are these: Mus musculus, Sarcoma-180, iv, 168 h, read-out: T/C. As for the experimental part:
Five male ddY-strain mice each weighing 18-20 g were used for each group as test animals, and 5×10^5 Sarcoma 180 tumor cells were implanted at the axilla subcutaneously. One day after the implantation, 0.2 ml of a physiological saline containing Compound (I) at the concentration shown in Table 2 was intravenously administered to each mouse. T/C [T: average tumor volume (mm^3) of the group treated with the test compound, C: average tumor volume (mm^3) of the control group (to which […] of a physiological saline was intravenously administered)] was determined seven days after the implantation.

Data set [2] is described as follows: Test for Solubility in Water. It is filed as physicochemical. Particulars: room temperature. The method, then:
A sample tube was charged with 0.7 mg of Compound (I), and 30 μl of water were added thereto at room temperature. The mixture was stirred, and the solubility in water was measured. When the compound was not dissolved, 30 μl of water was added thereto successively, and the mixture was stirred. The solubility in water was measured when the compound was dissolved.

The next data set has as its system ddY-strain male mice. Description: Acute Toxicity. It is filed as in vivo. The conditions noted are these: i.v., mortality at 14 days after administration. The method, then: Compound (I) was intravenously administered to ddY-strain male mice each weighing 20±1 g. MLD (minimum lethal dose) was determined by observing the mortality at 14 days after administration.

Another data set concerns HeLaS3 cells. Description: Growth Inhibitory Effect Against HeLaS3 cells. It is filed as cell-based. As for the experimental part: HeLaS3 cells were suspended in MEM medium containing 10% calf serum and 2 mM glutamine to a concentration of 2.67×10^4 cells/mi. The cell suspension thus prepared was put into wells of a 24-well culture plate in an amount of 0.75 ml per well. After the cells were incubated in a CO2 incubator overnight at 37° C., Compound (I) which had been appropriately diluted with a culture medium was added to each well in an amount of 0.25 ml.
The cells were further incubated in the CO2 incubator for 72 hours, and the culture supernatant was removed. Then, the cells were dispersed in a solution of trypsin and EDTA and recovered. The number of cells was counted using a cell counter. The concentration (IC50) of Compound (I) at which the growth of the cells is inhibited by 50% was calculated by comparing the number of untreated cells with the number of the cells treated with Compound (I) at known concentrations.

Another data set deals with various bacteria. The conditions noted are these: cited from earlier work.
A further data set deals with melanoma B-16. Particulars: cited from earlier work.
Where [3] appears, read: Homo sapiens, HeLa S3, 72 hours, read-out: IC50.

Values after ≈ are worked out from the molar mass of the structure shown. Like-named read-outs stand apart in the source and are kept apart here.

On to `COC(=O)c1c(C)[nH]c2c1C13CC1CN(C(=O)/C=C/c1ccc(OC)cc1)C3=CC2=O` (stereo not drawn) [(B)], for which the water-solubility entry in data set [1] is “lack satisfactory water-solubility”.

In the case of `COC(=O)c1c(C)[nH]c2c(OC(=O)N3CCN(C)CC3)cc3c(c12)C(CBr)CN3C(=O)/C=C/c1cnc(OC)nc1` (stereo not drawn) [Compound 8], in the data set with Sarcoma 180 tumor, the response vs control in vivo at 2 mg/kg was determined as 26%. Also, the solubility in data set [2] is more than 20 mg/mL. In the data set with ddY-strain male mice, the “MLD (minimum lethal dose)” value is 4.0 mg/kg. This molecule came in with a 50% inhibitory concentration (IC50) in the data set on HeLaS3 cells (Homo sapiens, HeLa S3, 72 h) of 170 nM.

As to `COC(=O)c1c(C)[nH]c2c(OC(=O)N3CCN(C)CC3)cc3c(c12)C(CBr)CN3C(=O)/C=C/c1ccc(OC)nn1` (stereo not drawn) [Compound 14], in the data set on Sarcoma 180 tumor, the response vs control in vivo at 1 mg/kg came out at 31%. The same molecule came in with a solubility in data set [2] of more than 20 mg/mL. In the data set with ddY-strain male mice, the “MLD (minimum lethal dose)” value came to 0.50 mg/kg. This molecule showed an IC50 in the data set with HeLaS3 cells (Homo sapiens, HeLa S3, 72 h) of 90 nM.

With `COC(=O)c1c(C)[nH]c2c(OC(=O)N3CCN(C)CC3)cc3c(c12)C(CBr)CN3C(=O)COc1ccc(OC(F)(F)F)cc1` (stereo not drawn) [Compound 25], the response vs control in vivo at 2 mg/kg with Sarcoma 180 tumor is 12%. The molecule also returned a solubility in data set [2] of 0.2 mg/mL (≈ 0.293 mM). Further, the “MLD (minimum lethal dose)” value in the data set on ddY-strain male mice stood at 4.0 mg/kg. Further, in the data set with HeLaS3 cells (Homo sapiens, HeLa S3, 72 h), the IC50 is 1100 nM.

On to `COC(=O)c1c(C)[nH]c2c(OC(=O)N3CCN(C)CC3)cc3c(c12)C(CBr)CN3C(=O)/C=C/c1ccc(OC)c(N(C)C)c1` (stereo not drawn) [Compound 43], for which the response vs control in vivo at 2 mg/kg in the data set on Sarcoma 180 tumor is 13%. This molecule registered a solubility in data set [2] of less than 0.5 mg/mL. For the same molecule, the “MLD (minimum lethal dose)” value in the data set with ddY-strain male mice is 4.0 mg/kg. In the data set with HeLaS3 cells (Homo sapiens, HeLa S3, 72 h), this molecule showed an IC50 of 52 nM.

For the molecule `COC(=O)c1c(C)[nH]c2c(OC(C)=O)cc3c(c12)C(CBr)CN3C(=O)/C=C/c1ccc(OC)c(N(C)C)c1` (stereo not drawn) [Compound 45], the response vs control in vivo at 1 mg/kg in the data set with Sarcoma 180 tumor was 20%. Also, the solubility in data set [2] was more than 20 mg/mL. For the same molecule, the “MLD (minimum lethal dose)” value in the data set with ddY-strain male mice was determined as 1.0 mg/kg. In addition, half-maximal inhibition in the data set with HeLaS3 cells (Homo sapiens, HeLa S3, 72 h) (IC50) required 0.54 nM.

With `CCN(CC)c1cc(/C=C/C(=O)N2CC(CBr)c3c2cc(OC(=O)N2CCN(C)CC2)c2[nH]c(C)c(C(=O)OC)c32)ccc1OC` (stereo not drawn) [Compound 49], the response vs control in vivo at 8 mg/kg in the data set on Sarcoma 180 tumor is 20%. In data set [2], the solubility is more than 20 mg/mL. In addition, the “MLD (minimum lethal dose)” value with ddY-strain male mice was more than 8.0 mg/kg. The molecule also had an IC50 in the data set with HeLaS3 cells (Homo sapiens, HeLa S3, 72 h) of 280 nM.

Turning to `COC(=O)c1c(C)[nH]c2c(OC(C)=O)cc3c(c12)C(CCl)CN3C(=O)/C=C/c1ccc(OC)c(N(C)C)c1` (stereo not drawn) [Compound 51], the response vs control in vivo at 4 mg/kg in the data set on Sarcoma 180 tumor (4.0 mg/kg, single i.v. one day after s.c. implantation, tumor volume ratio seven days after implantation) stood at 14%. The molecule also came in with a solubility in data set [2] of more than 10 mg/mL. For the same molecule, the “MLD (minimum lethal dose)” value with ddY-strain male mice was 4.0 mg/kg. Further, the 50% inhibitory concentration (IC50) in the data set on HeLaS3 cells (setting [3]) was found to be 0.46 nM.

With `COC(=O)c1c(C)[nH]c2c(OC(=O)c3cccnc3)cc3c(c12)C(CBr)CN3C(=O)/C=C/c1ccc(OC)c(N(C)C)c1` (stereo not drawn) [Compound 55], the response vs control in vivo at 1 mg/kg in the data set on Sarcoma 180 tumor was 28%. The same molecule yielded a solubility in data set [2] of more than 18 mg/mL. Further, the “MLD (minimum lethal dose)” value in the data set on ddY-strain male mice came out at 1.0 mg/kg. The IC50 in the data set with HeLaS3 cells (Homo sapiens, HeLa S3, 72 h) is 0.43 nM.

`COC(=O)c1c(C)[nH]c2c(OC(=O)NN3CCN(C)CC3)cc3c(c12)C(CBr)CN3C(=O)/C=C/c1ccc(OC)c(N(C)C)c1` (stereo not drawn) [Compound 60]: in the data set on Sarcoma 180 tumor, the response vs control in vivo at 4 mg/kg worked out at 15%. In addition, the solubility in data set [2] is more than 20 mg/mL. The “MLD (minimum lethal dose)” value with ddY-strain male mice is on record as more than 8.0 mg/kg. The same molecule yielded an IC50 in the data set on HeLaS3 cells (Homo sapiens, HeLa S3, 72 h) of 0.94 nM.

With `COC(=O)c1c(C)[nH]c2c(OC(=O)NN(C)C)cc3c(c12)C(CBr)CN3C(=O)/C=C/c1ccc(OC)c(N(C)C)c1` (stereo not drawn) [Compound 62], the response vs control in vivo at 2 mg/kg with Sarcoma 180 tumor (2.0 mg/kg, single i.v. one day after s.c. implantation, tumor volume ratio seven days after implantation) turned out to be 19%. The molecule also displayed a solubility in data set [2] of more than 20 mg/mL. The “MLD (minimum lethal dose)” value in the data set with ddY-strain male mice was 2.0 mg/kg. The IC50 in the data set with HeLaS3 cells (setting [3]) turned out to be 0.62 nM.

In the case of `CNN(C)C(=O)Oc1cc2c(c3c(C(=O)OC)c(C)[nH]c13)C(CBr)CN2C(=O)/C=C/c1ccc(OC)c(N(C)C)c1` (stereo not drawn) [Compound 64], the response vs control in vivo at 1.3 mg/kg in the data set with Sarcoma 180 tumor worked out at 26%. Further, the solubility in data set [2] is more than 15 mg/mL. In addition, in the data set with ddY-strain male mice, the “MLD (minimum lethal dose)” value worked out at 2.0 mg/kg. The molecule further came in with an IC50 in the data set with HeLaS3 cells (Homo sapiens, HeLa S3, 72 h) of 1.1 nM.

Regarding `COC(=O)c1c(C)[nH]c2c(OC(=O)c3ccc(CN4CCN(C)CC4)cc3)cc3c(c12)C(CBr)CN3C(=O)/C=C/c1ccc(OC)c(N(C)C)c1` (stereo not drawn) [Compound 66], the response vs control in vivo at 2 mg/kg in the data set on Sarcoma 180 tumor amounted to 21%. The molecule further came in with a solubility in data set [2] of more than 20 mg/mL. For the same molecule, the “MLD (minimum lethal dose)” value in the data set on ddY-strain male mice is given as 2.0 mg/kg. For the same molecule, 1.1 nM corresponded to half-maximal inhibition with HeLaS3 cells (Homo sapiens, HeLa S3, 72 h) (IC50).

With `COC(=O)c1c(C)[nH]c2c(OC(=O)NN3CCN(C)CC3)cc3c(c12)C(CCl)CN3C(=O)/C=C/c1cnc(OC)nc1` (stereo not drawn) [Compound 69], in the data set on Sarcoma 180 tumor, the response vs control in vivo at 4 mg/kg was 40%. The molecule further showed a solubility in data set [2] of more than 10 mg/mL. For the same molecule, in the data set with ddY-strain male mice, the “MLD (minimum lethal dose)” value stood at 4.0 mg/kg. Moreover, in the data set with HeLaS3 cells (Homo sapiens, HeLa S3, 72 h), the IC50 was 1.4 nM.

As to `COC(=O)c1c(C)[nH]c2c(OC(=O)NN3CCN(C)CC3)cc3c(c12)C(CBr)CN3C(=O)/C=C/c1cnc(OC)nc1` (stereo not drawn) [Compound 72], the response vs control in vivo at 4 mg/kg in the data set with Sarcoma 180 tumor was 15%. Further, the Solubility in water in data set [2] was more than 10 mg/mL. The “MLD (minimum lethal dose)” value in the data set with ddY-strain male mice was found to be 4.0 mg/kg. This molecule had an IC50 with HeLaS3 cells (72 hours) of 1.6 nM.

With `COC(=O)c1cc2c([nH]1)C(=O)C=C1N(C(=O)c3cc4cc(OC)c(OC)c(OC)c4[nH]3)CC3CC123` (stereo not drawn) [DC113], in the data set with various bacteria, the antibacterial activity entry is given as “antibacterial activity against various bacteria”. For the same molecule, the antitumor activity result in the data set on melanoma B-16 is given as “anti-tumor activity against melanoma B-16”.

In the case of `COC(=O)C1(C)NC2=C(C1=O)C13CC1CN(C(=O)c1cc4cc(OC)c(OC)c(OC)c4[nH]1)C3=CC2=O` (stereo not drawn) [DC-88A], in the data set on various bacteria, the antibacterial activity result is recorded as “antibacterial activity against various bacteria”. The antitumor activity entry in the data set on melanoma B-16 was “anti-tumor activity against melanoma B-16”.

Turning to `COC(=O)C1(C)Nc2c(O)cc3c(c2C1=O)CC(Cl)CN3C(=O)c1cc2cc(OC)c(OC)c(OC)c2[nH]1` (stereo not drawn) [DC-89A1], the antibacterial activity entry in the data set with various bacteria is “antibacterial activity against various bacteria”. Also, the antitumor activity entry with melanoma B-16 is recorded as “antitumor activity against melanoma B-16”.

Take `COC(=O)C1(C)Nc2c(O)cc3c(c2C1=O)C(CCl)CN3C(=O)c1cc2cc(OC)c(OC)c(OC)c2[nH]1` (stereo not drawn) [DC-89A2]: the antibacterial activity result in the data set with various bacteria is recorded as “antibacterial activity against various bacteria”. The antitumor activity entry in the data set on melanoma B-16 is “antitumor activity against melanoma B-16”.

On to `COC(=O)C1(C)Nc2c(O)cc3c(c2C1=O)CC(Br)CN3C(=O)c1cc2cc(OC)c(OC)c(OC)c2[nH]1` (stereo not drawn) [DC-89B1], for which the antibacterial activity entry in the data set on various bacteria is “antibacterial activity against various bacteria”. Also, in the data set on melanoma B-16, the antitumor activity result was “antitumor activity against melanoma B-16”.

`COC(=O)C1(C)Nc2c(O)cc3c(c2C1=O)C(CBr)CN3C(=O)c1cc2cc(OC)c(OC)c(OC)c2[nH]1` (stereo not drawn) [DC-89B2]: the antibacterial activity result in the data set on various bacteria was “antibacterial activity against various bacteria”. Further, the antitumor activity result in the data set on melanoma B-16 is listed as “antitumor activity against melanoma B-16”.
